Consider 9 compounds from patent EP0033241A2, “Pharmaceutical compositions for rectal administration” (priority 1980, dated 1981).

Data set [1] can be described thus: in vivo. Also on record: species or system SD strain male rats. The conditions noted are these: rat. An excerpt: The numeral 25 in the term "POE (25)" designates the average number of added moles of POE.
The nature of data set [2]: AUC 0 to 4 hours of cefsulodin (sodium) suppositories with polyoxyethylene cholesterol ethers (Experiment Example 4). Type of data set: in vivo, rats. As to conditions: rat, plasma, 20 mg/kg, rectal suppository 50 mg, 10 % cefsulodin (sodium), Witepsol H-5.
Experimental: The anuses were closed with an adhesive agent, and blood samples were taken from the tail veins with time elapsed to determine quantitatively the plasma levels of the compounds having a β-lactam ring by means of the biological assay method.
By incorporating 10 % of cefsulodin (sodium) and 5 % of polyoxyethylene cholesterol ether as shown in Table 5 into Witepsol H-5 used as an excipient, suppositories (50 mg each) were prepared, and administered rectally to rats, in the same manner as in Experiment Example 1, to determine quantitatively the concentration levels of the drug substance in plasma, thereby calculating AUC over the period of 0 to 4 hours. The dosage was 20 mg/Kg.
Data set [3] can be described thus: in vivo. The conditions noted are these: rat, im, 50 mg/kg, AUC^°6.

Molecules are shown by their SMILES. Where a name gives a salt, the structure may show the parent alone.

The term AUC denotes concentration integrated over time. Lower therefore signals low exposure. `CN(C)CCn1nnnc1SCC1=C(C(=O)O)N2C(=O)[C@@H](NC(=O)Cc3csc(N)n3)[C@H]2SC1` [Cefotiam, cefotiam] returned an AUC in the data set “in vivo [1]” (im) of 38700 ng·h/mL. Still for that read-out and setting: in the case of `CO/N=C(\C(=O)N[C@@H]1C(=O)N2C(C(=O)O)=C(COC(C)=O)CS[C@H]12)c1csc(N)n1` [HR-756, cefotaxime] it was 144000 ng·h/mL. The AUC(0-t) is the area under the concentration-time curve up to a stated or last time point. A high value points to more exposure. As for `NC(=O)c1cc[n+](CC2=C(C(=O)O)N3C(=O)[C@@H](NC(=O)[C@@H](c4ccccc4)S(=O)(=O)[O-])[C@H]3SC2)cc1` [Cefsulodin sodium, 3-(4-carbamoyl-l-pyridinio-methyl)-7β-(D-α-sulfophenylacetamide)-ceph-3-em-4-carboxylate monosodium salt], the AUC(0-t) at 4 h in data set [2] (5 % POE (10) cholesterol ether) is 30400 ng·h/mL; in data set [2] (5 % POE (20) cholesterol ether), 43000 ng·h/mL; in data set [2] (5 % POE (25) cholesterol ether), 35900 ng·h/mL; in data set [2] (5 % POE (30) cholesterol ether), 37900 ng·h/mL; in data set [2] (no polyoxyethylene cholesterol ether (None)), 500 ng·h/mL. The compound further registered an AUC in “in vivo [1]” (im) of 54000 ng·h/mL. In “in vivo [1]” (im), `CC1(C)S[C@@H]2[C@H](/N=C/N3CCCCCC3)C(=O)N2[C@H]1C(=O)O` [Mecillinam, 6a-[(hexahydro-lH-azepin-l-yl)-methyleneamino]penicillanic acid.sodium salt] came in with an exposure (AUC) of 105000 ng·h/mL. Take `CC1(C)S[C@@H]2[C@H](NC(=O)C(c3ccccc3)S(=O)(=O)O)C(=O)N2[C@H]1C(=O)O` (stereo partly shown) [Sulbenicillin, sulbenicillin]: the results for the area under the curve (AUC) in “in vivo [1]” and in “in vivo [1]” (im) were 92800 ng·h/mL and 192000 ng·h/mL, respectively. For the compound `Cc1nnc(SCC2=C(C(=O)O)N3C(=O)[C@@H](NC(=O)Cn4cnnn4)[C@H]3SC2)s1` [Cefazolin, cefazolin], the exposure (AUC) in the data set “in vivo [1]” (im) was found to be 348000 ng·h/mL. On the same count and under the same terms, for `CO/N=C(\C(=O)N[C@@H]1C(=O)N2C(C(=O)O)=CCS[C@H]12)c1csc(N)n1` [FK-749, cephthizoxime] the value was 77800 ng·h/mL. Compound `CO/N=C(\C(=O)N[C@@H]1C(=O)N2C(C(=O)O)=C(CSc3nnnn3C)CS[C@H]12)c1csc(N)n1` [Cefmenoxime (1/2HCl), 7β-[2-(2-aminothiazol-4-yl)-[Z]-2-methoxyimino-acetamide]-3-[(1-methyl-1H-tetrazol-5-yl)thiomethyl]-ceph-3-em-4-carboxylate.l/2hydrochloride] came in with an AUC at 6 h in “in vivo [3]” of 190000 ng·h/mL. The compound further registered an exposure (AUC) in “in vivo [1]” (im) of 190000 ng·h/mL.

In “in vivo [1]” (im), `CC1(C)S[C@@H]2[C@H](NC(=O)[C@H](N)c3ccccc3)C(=O)N2[C@H]1C(=O)O` [Ampicillin, ampicillin] returned an exposure (AUC) of 14800 ng·h/mL.
